{
  "source": "ChEMBL document CHEMBL1154404",
  "about": "(Antimicrob Agents Chemother, 2007)",
  "key": {"Homo sapiens [1]": {"test_system": "Homo sapiens", "assay": "Volume of distribution in fatty-liver cirrhosis patient treated at 2 mg, po twice a day for 30 days measured after 2 days of last dose", "type": "ADME, organism-based", "conditions": "in vivo, 48 h"}, "[2]": {"assay": "Plasma concentration in fatty-liver cirrhosis patient treated at 2 mg, po twice a day for 30 days measured after 11 days of last dose", "type": "ADME, organism-based", "conditions": "human"}, "[3]": {"assay": "Half life in healthy human at 2 mg, po twice a day for 30 days measured after 2 days of last dose", "type": "ADME, organism-based", "conditions": "in vivo"}, "Homo sapiens [4]": {"test_system": "Homo sapiens", "assay": "Volume of distribution in healthy human at 2 mg, po twice a day for 30 days measured after 2 days of last dose", "type": "ADME, organism-based", "conditions": "in vivo, 48 h"}, "Homo sapiens [5]": {"species_on_record": "Homo sapiens", "assay": "Drug elimination in healthy human assessed as cytochrome-dependent hepatic metabolism-mediated biliary elimination", "type": "ADME, organism-based", "conditions": "in vivo"}, "Homo sapiens [6]": {"species_on_record": "Homo sapiens", "assay": "Drug elimination in healthy human assessed as cytochrome-dependent hepatic metabolism-mediated kidney elimination", "type": "ADME, organism-based", "conditions": "in vivo"}, "Plasma": {"test_system": "Plasma", "assay": "Drug level in patient plasma", "type": "ADME, cell-free", "conditions": "human"}, "[7]": {"assay": "Half life in fatty-liver cirrhosis patient treated at 2 mg, po twice a day for 30 days measured after 2 days of last dose", "type": "ADME, organism-based", "conditions": "human, in vivo"}, "[8]": {"assay": "Plasma concentration in fatty-liver cirrhosis patient plasma treated at 2 mg, po twice a day for 30 days measured after 15 hrs of last dose", "type": "ADME, organism-based", "conditions": "human"}, "[9]": {"assay": "Plasma concentration in fatty-liver cirrhosis patient plasma treated at 2 mg, po twice a day for 30 days measured after 2 days of last dose", "type": "ADME, organism-based", "conditions": "human"}},
  "data": [
    {"smiles": "C[C@@H](c1ncncc1F)[C@](O)(Cn1cncn1)c1ccc(F)cc1F", "note": "[VORICONAZOLE]", "values": [
      {"measurement": "Vd", "setting": "Homo sapiens [1]", "value": 0.13, "unit": "L/kg"},
      {"measurement": "concentration at 264 h", "setting": "[2]", "value": 660, "unit": "ng/mL"},
      {"measurement": "half-life", "setting": "[3]", "value": 4.7, "unit": "h"},
      {"measurement": "Vd", "setting": "Homo sapiens [4]", "value": 2.04, "unit": "L/kg"},
      {"measurement": "Activity", "setting": "Homo sapiens [5]", "value": 20, "unit": "%"},
      {"measurement": "Activity", "setting": "Homo sapiens [6]", "value": 80, "unit": "%"},
      {"measurement": "Drug uptake", "setting": "Plasma", "value": "> 2.05", "unit": "µg/mL"},
      {"measurement": "half-life", "setting": "[7]", "value": 53.1, "unit": "h"},
      {"measurement": "concentration at 15 h", "setting": "[8]", "value": 13900, "unit": "ng/mL"},
      {"measurement": "concentration at 48 h", "setting": "[9]", "value": 10000, "unit": "ng/mL"}
    ]}
  ]
}
